The text below walks through data of patent publication US8193248B2, “Contraceptive composition” (Starpharma Pty Limited, priority 2006, dated 2012).

Data set [1] relates to motile sperm (normal semen sample). Description: modified Sander-Cramer Assay, spermicidal activity. The data set is classed as cell-based. Particulars: control; 30 seconds at room temperature. The procedure: This assay determines the sperm-immobilising minimum effective concentration (MEC).
Serial two-fold dilutions were prepared from stock solutions at 2% (for water soluble compounds) or 4% (for water insoluble compounds). 250 μL of each dilution were mixed with […] of a normal semen sample containing 60×10^6 motile sperm/mL. Normality of the semen samples was assessed with the aid of a CASA system (Hamilton-Thorne, IVOS; Beverly, Mass.). Semen and compound aliquots were microscopically examined while incubating at room temperature for 30 seconds. If any motile spermatozoon were found, either in the initial examination or after one hour incubation in medium, that dilution was labelled as “failed”. The MEC for a given compound was calculated using the highest dilution that induces total sperm immobilization. 6 to 10 semen samples were used to obtain more reliable results. N9 (MEC=˜0.1-0.2 mg/mL) and solvents were run as control.

For data set [2], the system named is herpes simplex virus type 2 (HSV-2). Particulars: previous studies, cited from earlier work.

As to Nonoxynol-9 [N9], the “sperm-immobilising minimum effective concentration (MEC)” value in data set [1] fell in the range of 0.1 to 0.2 mg/mL. In addition, the “animals infected with HSV-2” value in data set [2] is recorded as 29 out of 42. Besides, the “relative susceptibility to HSV-2 infection vs control animals” value in data set [2] (effective ID of low-dose inoculum in test mice / ID in controls) is 29.7 times.
